Assay [1] addresses T1, human PPARγ LBD bound to Gal4 DBD (Homo sapiens, UniProt P37231).
T1 construct: expressed in transfected cells; host or cells: HepG2
T1 sequence (P37231 238-503 limits assumed): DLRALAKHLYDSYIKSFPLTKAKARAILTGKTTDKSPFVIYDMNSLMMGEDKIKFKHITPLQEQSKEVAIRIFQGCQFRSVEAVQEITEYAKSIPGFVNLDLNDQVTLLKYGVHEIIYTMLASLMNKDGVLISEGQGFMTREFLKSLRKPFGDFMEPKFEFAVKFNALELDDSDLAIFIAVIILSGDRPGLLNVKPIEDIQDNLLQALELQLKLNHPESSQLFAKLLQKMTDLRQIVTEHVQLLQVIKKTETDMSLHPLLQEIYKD
Put plainly: PPARγ transfection luciferase reporter assay in HepG2 cells. Particulars: for Emax: HepG2, 24 h, compared to full agonist response (standard TZD full agonist), read-out: PPARγ % activation; for EC50: HepG2, 24 hours exposure. It is filed as cell-based. The method, then: PPARγ agonist activity may be determined by a cell line transiently transfected with PPARγ bound to a DNA binding domain that controls luciferase expression. The degree of receptor agonism is measured by the amount of luciferase activity after compound treatment. The ratio of treated cells over vehicle control cells provides a measure of fold activation and allows an EC50 (shown in tables I and II as […] EC50) and % activation to be calculated
A human hepatocellular carcinoma cell line (HepG2) was subcultured into dishes and transiently transfected with DNA to allow expression of human PPARγ LBD bound to Gal4 DBD. Luciferase reporter gene and β-galactosidase control genes were co-transfected to enable activity to be measured. After 24 hours, cells were exposed to compounds in the concentration range of 0.1 nM-100 μM and left for a further 24 hours. Luciferase activity is determined by luminometry and PPARγ activation is expressed as a ratio of luciferase activity to β-galactosidase activity to account for transfection efficiency. Potency is described by an EC50 defined as the concentration of compound producing receptor activation equivalent to 50% of the maximum for that compound (shown in Table I as transfection EC50). The maximum fold activation is a measure of efficacy and is expressed as a percentage of a reference full agonist run in the same assay. Efficacy is described by % activation of receptor relative to a standard thiazolidinedione (TZD) full agonist.
In general terms: Reporter assays use an easily measured gene product as a stand-in for the process of interest.

For assay [2], the target named is T2, Human recombinant AT1 receptor (Homo sapiens, UniProt P30556).
T2 construct: purchased
T2 sequence (P30556 1-359): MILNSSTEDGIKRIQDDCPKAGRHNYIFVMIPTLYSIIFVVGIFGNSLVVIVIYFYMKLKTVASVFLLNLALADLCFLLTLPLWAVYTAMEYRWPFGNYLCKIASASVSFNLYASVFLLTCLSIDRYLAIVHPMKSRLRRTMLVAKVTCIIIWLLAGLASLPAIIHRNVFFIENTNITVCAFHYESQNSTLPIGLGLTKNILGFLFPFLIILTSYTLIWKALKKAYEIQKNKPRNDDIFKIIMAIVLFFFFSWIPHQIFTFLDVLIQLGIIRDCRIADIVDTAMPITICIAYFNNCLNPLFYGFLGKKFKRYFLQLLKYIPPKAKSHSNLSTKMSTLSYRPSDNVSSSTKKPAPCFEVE
Nature of the assay: AT1 receptor radioligand binding (flashplate). Particulars: 125I Sar1,Ile8-Angiotensin II radioligand. As to the method: Angiotensin II receptor antagonist activity may be determined using commercially available flashplates coated with the AT1 or AT2 receptor which provide a rapid and high throughput means to evaluate compounds compared to traditional filtration based assays (Regina M. Van Der Hee et al., Journal of Biomolecular Screening 10(2); 2005; 118-126).
AT1 receptor affinity was determined in a radioligand binding format using commercially available flashplate technology. Human recombinant AT1 receptor were coated on the wells of a 96 well flashplate and test compounds were diluted and added to wells at a final concentration range of 50 μM to 1 μM. Total binding was determined in the absence of compound and non-specific binding in the presence of 10 μM cold Angiotensin II. ^125I labeled Sar^1, Ile^8-Angiotensin II was added to all wells at Kd concentration and left for 2 hours at room temperature to equilibrate. Plates were read on a TopCount (Perkin Elmer) and concentration-response curves constructed using commercial curve fitting software. The Ki was determined via interpolation and the use of the Cheng-Prussof equation.

One may read the EC50 as the midpoint of the concentration-response curve. Low readings indicate a more potent agent, high ones a less potent agent. A word on the IC50: it is the concentration that inhibits the measured activity by half. On to `CCCc1nc2c(C)cc(CCC(C)(C)O)nc2n1[C@H]1CCc2cc(-c3ccccc3-c3nnn[nH]3)ccc21` [Example 35, 4-(3-((1S)-5-(2-(1H-tetrazol-5-yl)phenyl)-2,3-dihydro-1H-inden-1-yl)-7-methyl-2-propyl-3H-imidazo[4,5-b]pyridin-5-yl)-2-methylbutan-2-ol], for which, in assay [1], the Emax came out at 23% and the EC50 came to 390 nM. Moreover, in assay [2], the IC50 stood at 0.5 nM.

In the case of `CCc1nc2c(C)cc(CC[C@H](C)O)nc2n1[C@H]1CCc2cc(-c3ccccc3-c3nnn[nH]3)ccc21` [Example 36, (S)-4-(3-((1S)-5-(2-(1H-tetrazol-5-yl)phenyl)-2,3-dihydro-1H-inden-1-yl)-2-ethyl-7-methyl-3H-imidazo[4,5-b]pyridin-5-yl)butan-2-ol], in assay [1], the Emax was 30% and the EC50 came to 215 nM. In addition, the IC50 in assay [2] is 1.2 nM.

On to `CCc1nc2c(C)cc(CC[C@H](C)OC)nc2n1[C@H]1CCc2cc(-c3ccccc3-c3nnn[nH]3)ccc21` [Example 38, 3-((1S)-5-(2-(1H-tetrazol-5-yl)phenyl)-2,3-dihydro-1H-inden-1-yl)-2-ethyl-5-((S)-3-methoxybutyl)-7-methyl-3H-imidazo[4,5-b]pyridine], for which, in assay [1], the Emax worked out at 21% and the EC50 was determined as 215 nM. In addition, in assay [2], the IC50 was 2 nM.

For `CCc1nc2c(C)cc(CC[C@@H](C)OC)nc2n1[C@H]1CCc2cc(-c3ccccc3-c3nnn[nH]3)ccc21` [Example 39, 3-((1S)-5-(2-(1H-tetrazol-5-yl)phenyl)-2,3-dihydro-1H-inden-1-yl)-2-ethyl-5-((R)-3-methoxybutyl)-7-methyl-3H-imidazo[4,5-b]pyridine], in assay [1], the Emax was determined as 24% and the midpoint of the response, the EC50, lay at 135 nM. For the same molecule, the IC50 in assay [2] came out at 1.1 nM.

Turning to `CCCc1nc2c(C)cc(CC[C@@H](C)O)nc2n1[C@H]1CCc2cc(-c3ccccc3-c3nnn[nH]3)ccc21` [Example 40, (R)-4-(3-((1S)-5-(2-(1H-tetrazol-5-yl)phenyl)-2,3-dihydro-1H-inden-1-yl)-7-methyl-2-propyl-3H-imidazo[4,5-b]pyridin-5-yl)butan-2-ol], in assay [1], the Emax stood at 20% and the EC50 came to 770 nM. In addition, the IC50 in assay [2] is 0.8 nM.

With `CCCc1nc2c(C)cc(CC[C@H](C)O)nc2n1[C@H]1CCc2cc(-c3ccccc3-c3nnn[nH]3)ccc21` [Example 41, (S)-4-(3-((1S)-5-(2-(1H-tetrazol-5-yl)phenyl)-2,3-dihydro-1H-inden-1-yl)-7-methyl-2-propyl-3H-imidazo[4,5-b]pyridin-5-yl)butan-2-ol], in assay [1], the Emax turned out to be 21% and the EC50 was 965 nM. Besides, the IC50 in assay [2] was 0.9 nM.

Take `CCc1nc2c(C)cc(CCC3(O)CCCC3)nc2n1[C@H]1CCc2cc(-c3ccccc3-c3nnn[nH]3)ccc21` [Example 42, 1-(2-(3-((1S)-5-(2-(1H-tetrazol-5-yl)phenyl)-2,3-dihydro-1H-inden-1-yl)-2-ethyl-7-methyl-3H-imidazo[4,5-b]pyridin-5-yl)ethyl)cyclopentanol]: in assay [1], the Emax is 29% and a half-maximal response (EC50) required 155 nM. For the same molecule, in assay [2], the IC50 stood at 1.1 nM.

On to `CCCc1nc2c(C)cc(CCC3(O)CCCC3)nc2n1[C@H]1CCc2cc(-c3ccccc3-c3nnn[nH]3)ccc21` [Example 43, 1-(2-(3-((1S)-5-(2-(1H-tetrazol-5-yl)phenyl)-2,3-dihydro-1H-inden-1-yl)-7-methyl-2-propyl-3H-imidazo[4,5-b]pyridin-5-yl)ethyl)cyclopentanol], for which, in assay [1], the Emax was found to be 20% and the response was half-maximal at 840 nM (EC50). Besides, the IC50 in assay [2] came to 1 nM.

For the molecule `CCc1nc2c(C)cc(CCC(O)CC)nc2n1[C@H]1CCc2cc(-c3ccccc3-c3nnn[nH]3)ccc21` (stereo partly drawn) [Example 44, 1-(3-((1S)-5-(2-(1H-tetrazol-5-yl)phenyl)-2,3-dihydro-1H-inden-1-yl)-2-ethyl-7-methyl-3H-imidazo[4,5-b]pyridin-5-yl)pentan-3-ol], in assay [1], the Emax came out at 38% and the EC50 worked out at 475 nM. Also, in assay [2], the IC50 stood at 1.1 nM.

As to `CCc1nc2c(C)cc(CC[C@H](O)CC)nc2n1[C@H]1CCc2cc(-c3ccccc3-c3nnn[nH]3)ccc21` [Example 45, (R)-1-(3-((1S)-5-(2-(1H-tetrazol-5-yl)phenyl)-2,3-dihydro-1H-inden-1-yl)-2-ethyl-7-methyl-3H-imidazo[4,5-b]pyridin-5-yl)pentan-3-ol], in assay [1], the Emax worked out at 32% and the EC50 came to 140 nM. For the same molecule, the IC50 in assay [2] was 1.1 nM.

As to `CCc1nc2c(C)cc(CC[C@@H](O)CC)nc2n1[C@H]1CCc2cc(-c3ccccc3-c3nnn[nH]3)ccc21` [Example 46, (S)-1-(3-((1S)-5-(2-(1H-tetrazol-5-yl)phenyl)-2,3-dihydro-1H-inden-1-yl)-2-ethyl-7-methyl-3H-imidazo[4,5-b]pyridin-5-yl)pentan-3-ol], in assay [1], the Emax is 26% and it took 170 nM to reach a half-maximal effect (EC50). The IC50 in assay [2] turned out to be 1.2 nM.

Consider `CCc1nc2c(C)cc(CCCO)nc2n1[C@H]1CCc2cc(-c3ccccc3-c3nnn[nH]3)ccc21` [Example 47, 3-(3-((1S)-5-(2-(1H-tetrazol-5-yl)phenyl)-2,3-dihydro-1H-inden-1-yl)-2-ethyl-7-methyl-3H-imidazo[4,5-b]pyridin-5-yl)propan-1-ol], for which, in assay [1], the Emax was determined as 34% and a half-maximal effect (EC50) was put at 550 nM. For the same molecule, the half-maximal inhibitory concentration (IC50) in assay [2] is 1.3 nM.

With `CCc1nc2c(C)cc(CCCOC)nc2n1[C@H]1CCc2cc(-c3ccccc3-c3nnn[nH]3)ccc21` [Example 48, 3-((1S)-5-(2-(1H-tetrazol-5-yl)phenyl)-2,3-dihydro-1H-inden-1-yl)-2-ethyl-5-(3-methoxypropyl)-7-methyl-3H-imidazo[4,5-b]pyridine], in assay [1], the Emax worked out at 21% and a half-maximal effect (EC50) was put at 190 nM. Besides, the half-maximal inhibitory concentration (IC50) in assay [2] was 1.1 nM.

On to `CCCc1nc2c(C)cc(CCC(C)O)nc2n1[C@H]1CCc2cc(-c3ccccc3-c3nnn[nH]3)ccc21` (stereo partly drawn) [Example 49, 4-(3-((1S)-5-(2-(1H-tetrazol-5-yl)phenyl)-2,3-dihydro-1H-inden-1-yl)-7-methyl-2-propyl-3H-imidazo[4,5-b]pyridin-5-yl)butan-2-ol], for which, in assay [1], the Emax was found to be 18% and a half-maximal effect (EC50) was put at 815 nM. Also, the IC50 in assay [2] is 1.6 nM.

Consider `CCCc1nc2c(C)cc(CCC(C)(O)CC)nc2n1[C@H]1CCc2cc(-c3ccccc3-c3nnn[nH]3)ccc21` (stereo partly drawn) [Example 50, 1-(3-((1S)-5-(2-(1H-tetrazol-5-yl)phenyl)-2,3-dihydro-1H-inden-1-yl)-7-methyl-2-propyl-3H-imidazo[4,5-b]pyridin-5-yl)-3-methylpentan-3-ol], for which, in assay [1], the Emax turned out to be 30% and the EC50 is 415 nM. In addition, the concentration for half-maximal inhibition (IC50) in assay [2] is 1.7 nM.

As to `CCCc1nc2c(C)cc(CCC(C)(O)c3ccccc3)nc2n1[C@H]1CCc2cc(-c3ccccc3-c3nnn[nH]3)ccc21` (stereo partly drawn) [Example 51, 4-(3-((1S)-5-(2-(1H-tetrazol-5-yl)phenyl)-2,3-dihydro-1H-inden-1-yl)-7-methyl-2-propyl-3H-imidazo[4,5-b]pyridin-5-yl)-2-phenylbutan-2-ol], in assay [1], the Emax was 36% and the EC50 was 130 nM. In assay [2], the IC50 was found to be 2.1 nM.

Source of the values: US20100029710A1, “COMPOUNDS HAVING BOTH ANGIOTENSIN II RECEPTOR ANTAGONISM AND PPARy ACTIVATING ACTIVITIES” (Pfizer Products Inc., priority 2006, published 2010).
